From paper PMC8163063 (Chemical Science, 2020)

Experiments:
Bacillus subtilis = type: cell-based
Escherichia coli = type: cell-based

In the case of “tachyplesin I (KWCFRVCYRGICYRRCR; not fully specified; Tachyplesin-1; UniProt P14213 24-40, looked up) [TPI-1]”, the “MIC against B. subtilis” value (Bacillus subtilis) is reported as 4 µg/mL and the “MIC against E.coli” value (Escherichia coli) is reported as 4 µg/mL.
